# Laboratory results published in the supplement of paper PMC11061612.
# Columns and labels:
# Assay in all cases: Bliss excess, mean over the matrix (fraction); higher = more synergy
# [1] = tested on: 8305C (Thyroid Gland Carcinoma)
# Outline: (§1)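 Bliss excess equals the observed combination effect minus the expected value EA + EB − EA·EB, where EA and EB are the effects of each agent alone. Combination Emax is the second-highest inhibition within the matrix. Inhibition was scaled from CellTiter-Glo 2.0 luminescence, with 0 set by vehicle wells and 1 by blank wells, after 72 hours of two-drug dosing of cells plated in 1536-well plates.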
# [2] = tested on: CAL-51 (Breast Carcinoma)
# Outline: as §1
# [3] = tested on: CAL-54 (Kidney Carcinoma)
# Outline: as §1
# COLO-829 (Melanoma) = tested on: COLO-829 (Melanoma)
# Outline: as §1
# [4] = tested on: CTB-1 (B-Cell Non-Hodgkin's Lymphoma)
# Outline: as §1
# HMV-II (Melanoma) = tested on: HMV-II (Melanoma)
# Outline: as §1
# [5] = tested on: KARPAS-231 (B-Cell Non-Hodgkin's Lymphoma)
# Outline: as §1
# [6] = tested on: KYSE-410 (Esophageal Squamous Cell Carcinoma)
# Outline: as §1
# [7] = tested on: LB771-HNC (Head and Neck Carcinoma)
# Outline: as §1
# [8] = tested on: LU-139 (Small Cell Lung Carcinoma)
# Outline: as §1
# [9] = tested on: MDA-MB-468 (Breast Carcinoma)
# Outline: as §1
# NCI-H28 (Mesothelioma) = tested on: NCI-H28 (Mesothelioma)
# Outline: as §1
# [10] = tested on: NCI-H747 (Colorectal Carcinoma)
# Outline: as §1
# [11] = tested on: OC-314 (Ovarian Carcinoma)
# Outline: as §1
# [12] = tested on: PCI-30 (Head and Neck Carcinoma)
# Outline: as §1
# [13] = tested on: RKO (Colorectal Carcinoma)
# Outline: as §1
# [14] = tested on: RT-112 (Bladder Carcinoma)
# Outline: as §1
# [15] = tested on: SUP-T1 (T-Lymphoblastic Leukemia)
# Outline: as §1
# [16] = tested on: SW1271 (Small Cell Lung Carcinoma)
# Outline: as §1
# [17] = tested on: TE-4 (Esophageal Squamous Cell Carcinoma)
# Outline: as §1
Structure (SMILES),Bliss excess [1],Bliss excess [2],Bliss excess [3],Bliss excess (COLO-829 (Melanoma)),Bliss excess [4],Bliss excess (HMV-II (Melanoma)),Bliss excess [5],Bliss excess [6],Bliss excess [7],Bliss excess [8],Bliss excess [9],Bliss excess (NCI-H28 (Mesothelioma)),Bliss excess [10],Bliss excess [11],Bliss excess [12],Bliss excess [13],Bliss excess [14],Bliss excess [15],Bliss excess [16],Bliss excess [17]
"Cc1cc2ncnn2cc1Nc1ncc2c(n1)n(C1CCOCC1)c(=O)n2C [AZD7648] + O=C(c1cc(Cc2n[nH]c(=O)c3ccccc23)ccc1F)N1CCN(C(=O)C2CC2)CC1 [Olaparib] (first compound max 10 µM, 7x7, partner max 10 µM)",-0.0478,-0.0214,-0.0408,-0.0378,-0.0489,-0.0181,0.0132,-0.0466,-0.0542,-0.0492,-0.0504,-0.0378,-0.0465,-0.0164,-0.0695,-0.0152,-0.0152,-0.0488,-0.0461,0.0061
"COc1cccc2c1C(=O)c1c(O)c3c(c(O)c1C2=O)C[C@@](O)(C(=O)CO)C[C@@H]3O[C@H]1C[C@H](N)[C@H](O)[C@H](C)O1 [Doxorubicin] + Cc1cc2ncnn2cc1Nc1ncc2c(n1)n(C1CCOCC1)c(=O)n2C [AZD7648] (first compound max 1 µM, 7x7, partner max 10 µM)",-0.0023,0.121,0.0594,0.0212,0.077,0.062,0.0522,-0.0448,-0.035,0.0476,0.0309,-0.0177,0.0388,0.105,0.006,0.0473,0.151,0.0368,0.0452,-0.0039
"COc1cccc(OCCCN)c1-c1cc(Nc2cnc(C#N)cn2)n[nH]1 [Prexasertib] + C=CCn1c(=O)c2cnc(Nc3ccc(N4CCN(C)CC4)cc3)nc2n1-c1cccc(C(C)(C)O)n1 [AZD1775] (first compound max 1 µM, partner max 1 µM)",0.0491,0.101,-0.024,-0.0067,0.0374,0.0779,0.0482,0.0066,0.0424,0.0089,0.0399,-0.0145,0.0623,0.0884,0.0954,0.0521,0.119,-0.0504,0.0019,0.0905
"COc1cccc(OCCCN)c1-c1cc(Nc2cnc(C#N)cn2)n[nH]1 [Prexasertib] + CCc1c2c(nc3ccc(O)cc13)-c1cc3c(c(=O)n1C2)COC(=O)[C@]3(O)CC [SN-38] (first compound max 1 µM, 7x7, partner max 0.3 µM)",-0.014,-0.0495,-0.115,0.0036,-0.0622,-0.0304,-0.0111,-0.0192,0,-0.0118,-0.0015,-0.074,0.0283,0.0061,0.0215,-0.0686,0.104,-0.152,-0.088,0.107
"COc1cccc(OCCCN)c1-c1cc(Nc2cnc(C#N)cn2)n[nH]1 [Prexasertib] + CN(C)CCCOc1ccc(-c2ccc3ncc4c(c3c2)n(C2CCOCC2)c(=O)n4C)cn1 [AZD0156] (first compound max 1 µM, 7x7, partner max 1 µM)",-0.0926,0.0233,0.0611,0.0127,0.0109,-0.0143,0.0423,-0.03,0.0582,-0.0244,-0.057,-0.0307,-0.0095,0.009,-0.0637,-0.014,0.0134,-0.0707,-0.0183,-0.0049
"COc1cccc(OCCCN)c1-c1cc(Nc2cnc(C#N)cn2)n[nH]1 [Prexasertib] + C[C@@H]1COCCN1C2=NC(=NC(=C2)C3(CC3)[S@](=N)(=O)C)C4=C5C=CNC5=NC=C4 [AZD6738] (first compound max 1 µM, 7x7, partner max 10 µM)",-0.0226,-0.0078,-0.0883,0.001,-0.091,0.0359,-0.0498,-0.0548,-0.0024,0.0339,-0.0106,-0.0062,-0.0294,0.0344,0.003,-0.0176,0.0275,-0.0374,-0.0337,0.0058
"COc1cccc(OCCCN)c1-c1cc(Nc2cnc(C#N)cn2)n[nH]1 [Prexasertib] + Cc1cc2ncnn2cc1Nc1ncc2c(n1)n(C1CCOCC1)c(=O)n2C [AZD7648] (first compound max 1 µM, 7x7, partner max 10 µM)",-0.0726,0.0069,-0.0483,0.0467,-0.0352,0.0203,0.0123,-0.0267,-0.0088,-0.015,0.0262,-0.0397,0.0085,-0.0286,-0.0227,-0.0193,-0.0357,-0.0536,-0.0014,-0.003
